In article PMC7017353, “Delineating the Molecular Basis of the Calmodulin–bMunc13-2 Interaction by Cross-Linking/Mass Spectrometry—Evidence for a Novel CaM Binding Motif in bMunc13-2” (Cells, 2020):
Where a SMILES comes first, the peptide text is derived from it.

Tested on: recombinant CaM
Assay: Photoaffinity labeling (PAL)-based competition assay
Format: binding
Conditions: photoprobe segment-C-Bpa 5 µM, CaM 5 µM, 200 µM Ca2+, SDS-PAGE and MALDI-TOF-MS; for suppression of photoadduct formation (in words): competitor up to 50-fold molar excess; for molar excess of competitor for complete suppression of photoadduct formation (full displacement of photoprobe): competitor 0–250 µM, 2 h RT
Description: Photoreactive peptides were synthesized by Fmoc chemistry using the amino acid derivative Fmoc-para-benzoylphenylalanine (Bpa, Novabiochem). Photoaffinity labeling (PAL)-based competition experiments with recombinant CaM were performed and analyzed as described previously. Briefly, CaM (5 µM) and segment-C-Bpa (5 µM) or segment-CS-Bpa (5 µM) were incubated in 50 mM HEPES (pH 7.2), 150 mM KCl, 5 mM DTT for 2 h at RT in the dark with (200 µM Ca^2+) or without (2 mM EGTA) calcium, and in the presence of increasing concentrations (0–250 μM) of competitor peptides. Following UV irradiation, photoadduct formation was visualized and quantified by SDS-PAGE and linear matrix-assisted laser desorption/ionization–time-of-flight–mass spectrometry (MALDI-TOF-MS).

Row | Molecule | suppression of photoadduct formation (in words) | molar excess of competitor for complete suppression of photoadduct formation (full displacement of photoprobe) [fold molar excess]
1 | 703KLSLEQVCAETIYLNKCINNDKNVLREKRLRQKKLLQELV742 [Segment F723D, segment-C variant with F723 exchanged to aspartic acid] | not able to displace segment-C-Bpa at all | 
2 | 719 CINNFKNVLREKRLRQKKLLQELV 742 [segment-CS] | could not suppress photoadduct formation | > 50
3 | CC[C@H](C)[C@H](NC(=O)[C@H](CS)NC(=O)[C@H](CCCCN)NC(=O)[C@H](CC(N)=O)NC(=O)[C@H](CC(C)C)NC(=O)[C@H](Cc1ccc(O)cc1)NC(=O)[C@@H](NC(=O)[C@@H](NC(=O)[C@H](CCC(=O)O)NC(=O)[C@H](C)NC(=O)[C@H](CS)NC(=O)[C@H](CC(=O)O)NC(=O)[C@H](CCC(N)=O)NC(=O)[C@H](CCC(=O)O)NC(=O)[C@H](CC(C)C)NC(=O)[C@H](CO)NC(=O)[C@H](CC(C)C)NC(=O)[C@H](CCCCN)NC(C)=O)[C@@H](C)O)[C@@H](C)CC)C(=O)N[C@@H](CC(N)=O)C(=O)N[C@@H](CC(N)=O)C(=O)N[C@@H](Cc1ccccc1)C(=O)N[C@@H](CCCCN)C(=O)N[C@@H](CC(N)=O)C(=O)N[C@H](C(=O)N[C@@H](CC(C)C)C(=O)N[C@@H](CCCNC(=N)N)C(=O)N[C@@H](CCC(=O)O)C(=O)N[C@@H](CCCCN)C(=O)N[C@@H](CCCNC(=N)N)C(=O)N[C@@H](CC(C)C)C(=O)N[C@@H](CCCNC(=N)N)C(=O)N[C@@H](CCC(N)=O)C(=O)N[C@@H](CCCCN)C(=O)N[C@@H](CCCCN)C(=O)N[C@@H](CC(C)C)C(=O)N[C@@H](CC(C)C)C(=O)N[C@@H](CCC(N)=O)C(=O)N[C@@H](CCC(=O)O)C(=O)N[C@@H](CC(C)C)C(=O)N[C@H](C(N)=O)C(C)C)C(C)C [Segment V709D] (Ac-KLSLEQDCAETIYLNKCINNFKNVLREKRLRQKKLLQELV-NH2; N-terminus and C-terminus assumed) |  | > 50
4 | 719CINNFKNVLREKRLRQKKLLQELVQTASHLSVED742 [segment-CL] | could not suppress photoadduct formation | > 50
